Measurements from the NIST ThermoML archive (doi:10.1016/j.jct.2012.05.020).
Numbers after ± are expanded uncertainties.

Conditions: 101.33 kPa, Liquid, Vibrating tube method

Row | mass density (293.16 K) [kg/m3] | mass density (298.15 K) [kg/m3] | mass density (303.15 K) [kg/m3] | mass density (308.15 K) [kg/m3] | mass density (313.15 K) [kg/m3] | mass density (318.15 K) [kg/m3] | mass density (323.18 K) [kg/m3] | mass density (293.15 K) [kg/m3] | mass density (298.14 K) [kg/m3] | mass density (303.14 K) [kg/m3] | mass density (308.14 K) [kg/m3] | mass density (313.14 K) [kg/m3] | mass density (318.14 K) [kg/m3] | mass density (323.14 K) [kg/m3] | mass density (328.14 K) [kg/m3] | mass density (333.14 K) [kg/m3] | mass density (338.14 K) [kg/m3] | mass density (343.14 K) [kg/m3] | SMILES
1 | 1240.25 ± 0.16 | 1236.81 ± 0.16 | 1233.39 ± 0.16 | 1229.98 ± 0.15 | 1226.59 ± 0.15 | 1223.22 ± 0.15 | 1219.84 ± 0.15 |  |  |  |  |  |  |  |  |  |  |  | CCOS(=O)(=O)[O-].CCn1cc[n+](C)c1 [1-ethyl-3-methylimidazolium ethyl sulfate]
2 |  |  |  |  |  |  |  | 889.47 ± 2.7 | 886.45 ± 2.7 | 883.43 ± 2.7 | 880.41 ± 2.7 | 877.37 ± 2.7 | 874.35 ± 2.6 | 871.36 ± 2.6 | 868.37 ± 2.6 | 865.37 ± 2.6 | 862.37 ± 2.6 | 859.36 ± 2.6 | CCCCCCCC[N+](C)(CCCCCCCC)CCCCCCCC.[Cl-] [N-methyl-N,N-dioctyl-1-octanaminium chloride]
3 | 915.29 ± 2.9 |  |  |  |  |  |  |  | 912.33 ± 2.9 | 909.37 ± 2.9 | 906.41 ± 2.8 | 903.43 ± 2.8 | 900.5 ± 2.8 | 897.58 ± 2.8 | 894.67 ± 2.8 | 891.76 ± 2.8 | 888.84 ± 2.7 | 885.93 ± 2.7 | CCCCCCCC[N+](C)(CCCCCCCC)CCCCCCCC.O=[N+]([O-])[O-] [N-methyl-N,N,N-trioctylammonium nitrate]
